In publication PMC4457358, “Structure–activity studies in the development of a hydrazone based inhibitor of adipose-triglyceride lipase (ATGL)” (Bioorganic & Medicinal Chemistry, 2015):
“Also recorded” adds a separate entry of the source. Like-named read-outs stand apart in the source and are kept apart here.

Tests used:
murine ATGL = biological target: T1, murine ATGL (Mus musculus, UniProt Q8BJ56); experiment: Triglyceride hydrolase activity assay with COS7-cell lysate overexpressing recombinant murine ATGL, radiolabelled triolein substrate; format: biochemical; details: for inhibition at 200 µM: 1 h, read-out: I200 (%); for biological activity against ATGL (in words) / IC50: COS7-cell lysate overexpressing murine ATGL;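 for all read-outs here: radioactivity from the triolein substrate quantified by liquid scintillation counting after phase separation, reflecting triglyceride hydrolase activity of murine ATGL in lysates of transfected COS-7 cells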
T1 construct: expressed in transfected cells; host or cells: COS-7 (ATCC CRL-1651), transient transfection with Metafectene; crude lysate after 1000 x g spin
T1 sequence (Q8BJ56 1-486): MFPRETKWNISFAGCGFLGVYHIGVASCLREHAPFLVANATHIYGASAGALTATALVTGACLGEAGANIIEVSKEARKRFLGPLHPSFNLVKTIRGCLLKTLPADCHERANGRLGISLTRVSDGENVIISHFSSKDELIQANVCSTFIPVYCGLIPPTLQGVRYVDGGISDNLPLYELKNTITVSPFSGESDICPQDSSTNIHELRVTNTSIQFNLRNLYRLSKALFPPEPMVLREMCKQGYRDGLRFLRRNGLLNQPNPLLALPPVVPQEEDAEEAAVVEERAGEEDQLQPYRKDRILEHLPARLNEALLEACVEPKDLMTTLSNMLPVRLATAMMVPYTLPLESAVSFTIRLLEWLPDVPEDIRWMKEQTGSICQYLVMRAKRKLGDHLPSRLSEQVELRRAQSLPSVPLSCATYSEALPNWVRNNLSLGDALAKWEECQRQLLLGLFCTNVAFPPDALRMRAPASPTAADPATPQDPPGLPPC
Experimental: All synthesized test compounds were screened for their efficiency to inhibit ATGL activity in vitro in an assay using radiolabelled triolein as substrate.[20] As ATGL cannot be purified, the assays were performed with COS7-cell lysates from cells overexpressing recombinant murine ATGL. For the determination of the IC50-value inhibitors were administered with increasing concentrations to the enzyme and its substrate. To determine the ATGL-inhibition efficiency at 200 μM (I200), 200 μM inhibitor was administered to the enzyme and its substrate.
For the determination of TG hydrolase activity cell lysates of COS-7 cells overexpressing recombinant murine ATGL were used. Therefore, monkey embryonic kidney cells (Cos-7; ATCC CRL-1651) were cultivated in Dulbeccos modified eagles medium (DMEM, GIBCO, Invitrogen Corp., Carlsbad, CA), containing 10% fetal calf serum (FCS, Sigma–Aldrich) and antibiotics (100 IU/mL penicillin and 100 μg/mL streptomycin) at standard conditions (37 °C, 5% CO2, 95% humidified atmosphere). Cells were transfected with 1 μg DNA complexed to Metafectene (Biontex GmbH, Munich, Germany) in serum free DMEM. After 4 h the medium was replaced by DMEM supplemented with 10% FCS. For the preparation of cell lysates, cells were washed with 1× phosphate buffered saline, collected using a cell scraper, and disrupted in buffer A (0.25 M sucrose, 1 mM EDTA, 1 mM dithiothreitol, 20 μg/mL leupeptine, 2 μg/mL antipain, 1 μg/mL pepstatin, pH 7.0) by sonication (Virsonic 475, Virtis, Gardiner, NJ). Nuclei and unbroken cells were removed by centrifugation (1000×g, 4 °C, for 10 min). Protein concentration of the cell lysates were determined by Bio-Rad protein assay according to the manufacturer’s protocol (Bio-Rad 785, Bio-Rad Laboratories, Munich, Germany), using BSA as standard.
The triolein (TO) substrate was prepared as described. […] In brief, 330 μM triolein (40,000 cpm/nmol) (GE Healthcare) was emulsified with 45 μM phosphatidylcholine/phosphatidylinositol (3:1) (Sigma) in 100 mM potassium phosphate buffer (pH 7.0) by sonication (Virsonic 475, Virtis) and was adjusted to 5% (w/v) fatty acid free bovine serum albumin (BSA, Sigma). 100 μL (20 μg protein) cell lysate or 2 μl purified recombinant LPL (Sigma–Aldrich) were incubated with 100 μL TO substrate in the presence or in the absence of inhibitors in a water bath for 1 h at 37 °C. After incubation, the reaction was terminated by adding 3.25 mL of methanol/chloroform/heptane (10:9:7) and 1 mL of 0.1 M potassium carbonate, 0.1 M boric acid (pH 10.5). After centrifugation (800 g, 15 min), the radioactivity in 1 mL of the upper phase was determined by liquid scintillation counting.

[1] = system: WAT (white adipose tissue) organ cultures; experiment: Lipolysis of isolated WAT organ cultures of wild-type, ATGL-ko and HSL-ko mice (FA release); format: cell-based; details: for FA release (lipolysis): 0, 10, 100, 200 µM inhibitor, fat pads of wt, ATGL-ko, HSL-ko mice; for selectivity between ATGL and HSL: lipolysis similarly decreased in ATGL and HSL deficient adipose tissue
Excerpt: As the hydrazone moiety is regarded as a problematic molecular group due to its metabolic instability resulting in toxic side products,[12] we prepared compound 8 which can be regarded as a variant of 1a missing one nitrogen atom (Scheme 5). […] Taken together these efforts have shown that the hydrazone moiety is an essential element of the biological activity of the hit compound 1a and could not be replaced by the most obvious structural isosteres. In order to further characterize our hit compound 1a and best inhibitor 1h, these compounds were tested for ATGL- and HSL-selectivity by the determination of lipolysis in WAT (white adipose tissue) organ cultures of wild-type, ATGL-ko, and HSL-ko mice. […]
µM Inhibitor µM Inhibitor […]
(§1) (also on this page, place not known: µmol glycerol/h*mg protein nmol FFA/ml/min nmol FFA/h*mg nmol FFA/h*mg) […]
(§2) Lipolysis of isolated WAT organ cultures - Gonadal fat pads of wild-type, ATGL deficient (ATGL-ko), and HSL deficient (HSL-ko) mice were surgically removed and washed several times with PBS.
(§3) Tissue pieces (~15 mg) were preincubated in DMEM containing 0, 10, 100, and 200 µM inhibitors for 8 h at C37°C, 5% CO2, 95 % humidified atmosphere. Thereafter, the medium was replaced by DMEM containing 2 % BSA (fatty acid-free) and 0, 10, 100, and 200 µM inhibitors, and incubated for another 60 min at 37°C. Then, aliquots of the medium were removed and analyzed for FA and glycerol content using commercial kits (HR Series NEFA-HR(2), WAKO Diagnostics, Neuss, Germany; Sigma, St.
Louis, MO). For protein determinations, fat pads were washed extensively with PBS and lysed in 0.3 […]
U. et al. Monoglyceride lipase deficiency in mice impairs lipolysis and attenuates diet-induced insulin

[2] = biological target: T2, monoglyceride lipase (MGL) (Mus musculus, UniProt O35678); experiment: MG hydrolase activity with recombinant purified mMGL; format: biochemical; details: 100 µM compound
T2 sequence (O35678 1-303): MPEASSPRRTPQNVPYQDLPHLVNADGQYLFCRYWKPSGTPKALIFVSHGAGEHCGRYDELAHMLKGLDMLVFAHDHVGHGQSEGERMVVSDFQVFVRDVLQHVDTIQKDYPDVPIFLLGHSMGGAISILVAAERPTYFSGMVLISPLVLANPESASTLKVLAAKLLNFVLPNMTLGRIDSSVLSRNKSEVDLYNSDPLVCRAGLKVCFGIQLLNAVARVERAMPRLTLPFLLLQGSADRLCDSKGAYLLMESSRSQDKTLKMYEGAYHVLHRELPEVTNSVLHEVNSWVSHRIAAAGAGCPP
Experimental: (§4) Structure-activity studies in the development of a hydrazone based inhibitor of adipose-triglyceride lipase (ATGL)
(§5) Nicole Mayer, Martina Schweiger, Michaela-Christina Melcher, Christian Fledelius, Rudolf Zechner, Robert Zimmermann and Rolf Breinbauer […]
(§6) µM Inhibitor µM Inhibitor
(§7) Fig. S1: Selectivity tests of 1a and 1h with white adipose tissue fat pads of wt, ATGL-ko, and […]
Fig S2. LPL (left) and Monoglyceride hydrolase (MGH) (right) activities in the absence or presence of 100 µM compound 1h.
as §1, §2
Tissue pieces (~15 mg) were preincubated in DMEM containing 0, 10, 100, and 200 µM inhibitors for 8 h at C37°C, 5% CO2, 95 % humidified atmosphere. […] Then, aliquots of the medium were removed and analyzed for FA and glycerol content using commercial kits (HR Series NEFA-HR(2), WAKO Diagnostics, Neuss, Germany; Sigma, St. […]
viability assays, cells were seeded at an initial density of […] cells per well in 12-well plates and cultured under standard conditions for 24 hours. […] After solubilization for 10 min at room temperature absorbance was measured at 540 nm. […]

[3] = system: AML-12 mouse hepatocytes cells; experiment: Tox 4 toxicity test (neutral red viability); format: cell-based; details: 1, 10, 100, 200 µM inhibitor
Experimental: Fig. S3: Toxicity test of inhibitor 1h using Tox 4-test with AML-12 mouse hepatocytes cells […]
as §2, §3
Louis, MO). […]
viability assays, cells were seeded at an initial density of […] cells per well in 12-well plates and cultured under standard conditions for 24 hours. […] After solubilization for 10 min at room temperature absorbance was measured at 540 nm.
Determination of MG hydrolase activity. Monoacylglycerol hydrolase activities were determined using recombinant, purified mMGL and rac-1-(3)-oleoylglycerol as substrate as described (Taschler, U. et al. Monoglyceride lipase deficiency in mice impairs lipolysis and attenuates diet-induced insulin

lipoprotein lipase = experiment: LPL activity with purified recombinant LPL and triolein substrate; format: biochemical; details: 100 µM compound
Experimental: The triolein (TO) substrate was prepared as described. In brief, 330 μM triolein (40,000 cpm/nmol) (GE Healthcare) was emulsified with 45 μM phosphatidylcholine/phosphatidylinositol (3:1) (Sigma) in 100 mM potassium phosphate buffer (pH 7.0) by sonication (Virsonic 475, Virtis) and was adjusted to 5% (w/v) fatty acid free bovine serum albumin (BSA, Sigma). 100 μL (20 μg protein) cell lysate or 2 μl purified recombinant LPL (Sigma–Aldrich) were incubated with 100 μL TO substrate in the presence or in the absence of inhibitors in a water bath for 1 h at 37 °C. After incubation, the reaction was terminated by adding 3.25 mL of methanol/chloroform/heptane (10:9:7) and 1 mL of 0.1 M potassium carbonate, 0.1 M boric acid (pH 10.5). After centrifugation (800 g, 15 min), the radioactivity in 1 mL of the upper phase was determined by liquid scintillation counting.
as §4, §5, §6, §7
Fig S2. LPL (left) and Monoglyceride hydrolase (MGH) (right) activities in the absence or presence of 100 µM compound 1h. […]

[4] = ATGL-inhibition efficiency at 200 μM inhibitor

## Oc1ccc(/C=N/N2CCN(Cc3ccccc3)CC2)c(O)c1 [Compound 3d, (E)-4-((4-Benzylpiperazin-1-ylimino)methyl)benzene-1,3-diol]
Murine ATGL; [4]
  inhibition at 200 µM: 48%
other
  melting point: 225 to 228 °C

## Oc1ccc(/C=N/N2CCN(CCc3ccccc3)CC2)c(O)c1 [Compound 3e, (E)-4-((4-Phenethylpiperazin-1-ylimino)methyl)benzene-1,3-diol]
Murine ATGL; [4]
  inhibition at 200 µM: 14%
other
  melting point: 211 to 214 °C

## Oc1ccc(/C=N/N2CCN(C3CCCC3)CC2)c(O)c1 [Compound 3g, (E)-4-((4-Cyclopentylpiperazin-1-ylimino)methyl)benzene-1,3-diol]
Murine ATGL; [4]
  inhibition at 200 µM: 36%
other
  melting point: 237 to 239 °C (dec.)

## COc1cc(OC)c(OC)cc1/C=N/N1CCN(c2ccccc2)CC1 [Compound 1k, (E)-4-Phenyl-N-(2,4,5-trimethoxybenzyliden)piperazin-1-amine]
Murine ATGL; [4]
  inhibition at 200 µM: 43%
other
  melting point: 153 to 156 °C

## C1=C(/C=N/N2CCN(c3ccccc3)CC2)CCCC1 [Compound 2d, (E)-N-(Cyclohexenylmethylen)-4-phenylpiperazin-1-amine]
Murine ATGL; [4]
  inhibition at 200 µM: 58%
Murine ATGL
  biological activity against ATGL (in words): moderate activity
other
  melting point: 118 to 120 °C

## Clc1ccc(/C=N/N2CCN(c3ccccc3)CC2)cc1Cl [Compound 1n, (E)-N-(3,4-Dichlorobenzylidene)-4-phenylpiperazin-1-amine]
Murine ATGL; [4]
  inhibition at 200 µM: 20%
Murine ATGL
  biological activity against ATGL (in words): inactive
other
  melting point: 176 to 178 °C

## COc1ccc(/C=N/N2CCN(c3ccccc3)CC2)cc1O [Compound 1c, (E)-2-Methoxy-5-((4-phenylpiperazin-1-ylimino)methyl)phenol]
Murine ATGL; [4]
  inhibition at 200 µM: 56%
other
  melting point: 180 °C (dec.)

## Fc1ccc(/C=N/N2CCN(c3ccccc3)CC2)cc1F [Compound 1m, (E)-N-(3,4-Difluorobenzylidene)-4-phenylpiperazin-1-amine]
Murine ATGL; [4]
  inhibition at 200 µM: 67%
Murine ATGL
  IC50: 75 µM
other
  melting point: 152 to 154 °C

## Oc1ccc(CN2CCN(c3ccccc3)CC2)cc1O [Compound 8, 4-((4-Phenylpiperazin-1-yl)methyl)benzene-1,2-diol]
Murine ATGL
  inhibition at 200 µM: 20%
  biological activity against ATGL (in words): biologically inactive
other
  melting point: 100 to 102 °C

## COc1ccc(/C=N/N2CCN(c3ccccc3)CC2)cc1OC [Compound 1b, (E)-N-(3,4-Dimethoxybenzylidene)-4-phenylpiperazin-1-amine]
Murine ATGL; [4]
  inhibition at 200 µM: 65%
other
  melting point: 153 to 154 °C

## Oc1ccc(/C=N/N2CCN(c3ccccc3)CC2)cc1O [Compound 1a, (E)-4-((4-Phenylpiperazin-1-ylimino)methyl)benzene-1,2-diol]
Murine ATGL; [4]
  inhibition at 200 µM: 69%
Murine ATGL
  IC50: 110 µM
other
  melting point: 180 °C
[1]
  FA release (lipolysis): dose dependent reduction of FA release
  selectivity between ATGL and HSL: no selectivity

## C(=N\N1CCN(c2ccccc2)CC1)/c1ccc2ccccc2n1 [Compound 2i, (E)-4-Phenyl-N-(quinoline-2-ylmethylen)-piperazin-1-amine]
Murine ATGL; [4]
  inhibition at 200 µM: 8%
other
  melting point: 210 to 212 °C

## O=C(Oc1ccc(F)c(F)c1)N1CCN(c2ccccc2)CC1 [Compound 14, 3,4-Difluorophenyl-4-phenylpiperazin-1-carboxylate]
Murine ATGL; [4]
  inhibition at 200 µM: 57%
Murine ATGL
  IC50: 110 µM
other
  melting point: 94 to 96 °C

## Oc1ccccc1/C=N/N1CCN(c2ccccc2)CC1 [Compound 1f, (E)-2-((4-Phenylpiperazin-1-ylimino)methyl)phenol]
Murine ATGL; [4]
  inhibition at 200 µM: 64%
other
  melting point: 138 to 142 °C

## Oc1ccc(/C=N/N2CCN(c3ccccc3)CC2)c(O)c1 [Compound 1h, (E)-4-(4-Phenylpiperazin-1-ylimino)methylbenzene-1,3-diol]
[2]
  inhibition of monoglyceride lipase (MGL): does not inhibit
Murine ATGL; [4]
  inhibition at 200 µM: 94%
Murine ATGL
  IC50: 10 µM
other
  melting point: 183 to 184 °C
[1]
  FA release (lipolysis): dose dependent reduction of FA release
  selectivity between ATGL and HSL: no selectivity; also recorded: limited specificity
[3]
  toxicity (Tox 4 toxicity test): toxic; also recorded: intrinsic toxicity
Lipoprotein lipase
  inhibition of lipoprotein lipase: does not inhibit

## Oc1ccc(/C=N/N2CCC(Cc3ccccc3)CC2)c(O)c1 [Compound 3i, (E)-4-((4-benzylpiperidine-1-ylimino)methyl)benzene-1,3-diol]
Murine ATGL; [4]
  inhibition at 200 µM: 26%
other
  melting point: 138 to 141 °C

## C(=N\N1CCN(c2ccccc2)CC1)/c1ccncc1 [Compound 2g, (E)-4-Phenyl-N-(pyridine-4-ylmethylen)piperazin-1-amine]
Murine ATGL; [4]
  inhibition at 200 µM: 60%
Murine ATGL
  biological activity against ATGL (in words): moderate activity
other
  melting point: 156 to 158 °C

## Oc1ccc(/C=N/N2CCN(C3CCCCC3)CC2)c(O)c1 [Compound 3f, (E)-4-((4-Cyclohexylpiperazin-1-ylimino)methyl)benzene-1,3-diol]
Murine ATGL; [4]
  inhibition at 200 µM: 25%
other
  melting point: 247 to 249 °C (dec.)
